Columns and labels:
Format in all cases: in vivo
[1] = tested on: Setaria faberi; test: Greenhouse post-emergence treatment of Setaria faberi (giant foxtail); conditions: application rate 3.0 kg/ha; for pest or weed control at 3000 g/ha: scale 0 to 100, read-out: damage; for damage: scale 0 to 100
Description: (§1) The seeds of the test plants were sown separately for each species. For the post-emergence treatment, the test plants were first grown to a height of 3 to 15 cm, depending on the plant habit, and only then treated with the active ingredients which had been suspended or emulsified in water. For this purpose, the test plants were either sown directly and grown in the same containers, or they were first grown separately as seedlings and transplanted into the test containers a few days prior to treatment. Depending on the species, the plants were kept at 10-25° C. or 20-35° C. The test period extended over 2 to 4 weeks. During this time, the plants were tended, and their response to the individual treatments was evaluated. Evaluation was carried out using a scale from 0 to 100. 100 means no emergence of the plants, or complete destruction of at least the aerial moieties, and 0 means no damage, or normal course of growth. A good herbicidal activity is given at values of at least 80 and a very good herbicidal activity is given at values of at least 90. The plants used in the greenhouse experiments belonged to the following species: [table]

[2] = tested on: Abutilon theophrasti; test: Greenhouse post-emergence treatment of Abutilon theophrasti (velvetleaf); conditions: scale 0 (no damage) to 100 (complete destruction); for pest or weed control at 3000 g/ha: Abutilon theophrasti
Description: as §1

[3] = tested on: Amaranthus retroflexus L.; test: Greenhouse post-emergence treatment of Amaranthus retroflexus L. (pigweed); conditions: for damage / pest or weed control at 1000 g/ha: application rate 1.0 kg/ha; for damage: scale 0 to 100
Description: as §1

[4] = tested on: Chenopodium album; test: Greenhouse post-emergence treatment of Chenopodium album (fat-hen); conditions: for damage / pest or weed control at 1000 g/ha: application rate 1.0 kg/ha; for damage: scale 0 to 100
Description: as §1

[5] = scale 0 to 100, read-out: damage
[6] = application rate 0.927 kg/ha, scale 0 to 100, read-out: damage

O=C(O)c1cc(C2(F)CC2)nc2onc(C3(F)CC3)c12
pest or weed control at 3000 g/ha [1]: 98%

C=CCOC(=O)c1cc(C2CC2)nc2onc(C)c12 [I.1.62]
damage ([2]; application rate 2.0 kg/ha): 100%

Cc1noc2nc(C3CC3)cc(C(=O)OCC(F)F)c12 [I.1.65]
damage [3]: 100% | damage [4]: 100%

CC#CCOC(=O)c1cc(C2CC2)nc2onc(C)c12 [I.1.68]
damage ([2]; application rate 3.0 kg/ha): 100%

CCOCCOC(=O)c1cc(C2CC2)nc2onc(C)c12 [I.1.69]
damage ([2]; application rate 3.0 kg/ha): 100%

CCCCOCCOCCOC(=O)c1cc(C2CC2)nc2onc(C)c12 [I.1.70]
damage ([2]; application rate 3.0 kg/ha): 100%

C=COCCOC(=O)c1cc(C2CC2)nc2onc(C)c12 [I.1.75]
damage ([2]; application rate 3.0 kg/ha): 100%

Cc1noc2nc(C3CC3)cc(C(=O)SCc3ccccc3)c12 [I.1.79]
damage [3]: 98% | damage [4]: 85%

C=CCSC(=O)c1cc(C2CC2)nc2onc(C)c12 [I.1.80]
damage [3]: 98% | damage [4]: 98%

CCCCSC(=O)c1cc(C2CC2)nc2onc(C)c12 [I.1.81]
damage [3]: 98% | damage [4]: 98%

CSC(=O)c1cc(C2CC2)nc2onc(C)c12 [I.1.82]
damage [3]: 98% | damage [4]: 98%

CON(C)C(=O)c1cc(C2CC2)nc2onc(C)c12 [I.1.83]
damage [3]: 100% | damage [4]: 100%

O=C(O)c1cc(C2CC2)nc2onc(-c3ccc(Cl)cc3)c12 [I.2.17]
damage ([2]; application rate 3.0 kg/ha): 100%

O=C(O)c1cc(C2CC2)nc2onc(-c3ccc(C(F)(F)F)cc3)c12 [I.2.18]
damage ([2]; application rate 3.0 kg/ha): 100%

O=C(O)c1cc(C2CC2)nc2onc(-c3cccc(C(F)(F)F)c3)c12 [I.2.21]
damage ([2]; application rate 3.0 kg/ha): 100%

COc1cccc(-c2noc3nc(C4CC4)cc(C(=O)O)c23)c1 [I.2.22]
damage ([2]; application rate 3.0 kg/ha): 100%

O=C(O)c1cc(C2CC2)nc2onc(-c3cccc(Cl)c3)c12 [I.2.24]
damage ([2]; application rate 3.0 kg/ha): 100%

CCc1noc2nc(C3CC3)cc(C(=O)O)c12 [I.2.25]
pest or weed control at 3000 g/ha [1]: 95%

O=C(O)c1cc(C2CC2)nc2onc(C3CCCCC3)c12 [I.2.26]
pest or weed control at 3000 g/ha ([2]; application rate 3.0 kg/ha): 100%

O=C(O)c1cc(C2CC2)nc2onc(CC3CCCC3)c12 [I.2.27]
pest or weed control at 3000 g/ha ([2]; application rate 3.0 kg/ha): 100%

O=C(O)c1cc(C2CC2)nc2onc(CCC3CCCCC3)c12 [I.2.30]
pest or weed control at 3000 g/ha ([2]; application rate 3.0 kg/ha): 100%

O=C(O)c1cc(C2CC2)nc2onc(-c3cccc(F)c3)c12 [I.2.31]
damage ([2]; application rate 3.0 kg/ha): 100%

O=C(O)c1cc(C2CC2)nc2onc(CCCc3ccccc3)c12 [I.2.37]
damage ([2]; application rate 3.0 kg/ha): 90%

COCc1noc2nc(C3CC3)cc(C(=O)O)c12 [I.2.38]
damage ([2]; application rate 3.0 kg/ha): 100%

CC(C)CCc1noc2nc(C3CC3)cc(C(=O)O)c12 [I.2.39]
damage ([2]; application rate 3.0 kg/ha): 100%

O=C(O)c1cc(C2CC2)nc2onc(CCCc3cccs3)c12 [I.2.40]
pest or weed control at 3000 g/ha ([2]; application rate 3.0 kg/ha): 100%

COc1ccc(CCc2noc3nc(C4CC4)cc(C(=O)O)c23)cc1 [I.2.42]
damage ([2]; application rate 3.0 kg/ha): 100%

O=C(O)c1cc(C2CC2)nc2onc(-c3ccc(I)cc3)c12 [I.2.43]
damage ([2]; application rate 3.0 kg/ha): 100%

O=C(O)c1cc(C2CC2)nc2onc(-c3cc(F)cc(F)c3)c12 [I.2.44]
damage ([2]; application rate 3.0 kg/ha): 100%

O=C(O)c1cc(C2CC2)nc2onc(-c3ccc(OC(F)F)cc3)c12 [I.2.45]
damage [3]: 98% | damage [4]: 98%

O=C(O)c1cc(C2CC2)nc2onc(C3(F)CC3)c12 [I.2.46]
pest or weed control at 1000 g/ha [3, 5]: 98% | pest or weed control at 1000 g/ha [4, 5]: 98%

O=C(O)c1cc(C2CC2)nc2onc(-c3ccccc3F)c12 [I.2.50]
damage [3]: 100% | damage [4]: 100%

O=C(O)c1cc(C2CC2)nc2onc(-c3ccc(F)cc3)c12 [I.2.51]
damage [3]: 100% | damage [4]: 100%

Cc1ccccc1-c1noc2nc(C3CC3)cc(C(=O)O)c12 [I.2.52]
damage [3]: 100% | damage [4]: 98%

COc1noc2nc(C3CC3)cc(C(=O)O)c12 [I.2.53]
pest or weed control at 1000 g/ha [3, 5]: 100% | pest or weed control at 1000 g/ha [4, 5]: 100%

CCOc1noc2nc(C3CC3)cc(C(=O)O)c12 [I.2.54]
pest or weed control at 1000 g/ha [3, 5]: 100% | pest or weed control at 1000 g/ha [4, 5]: 100%

CCCOc1noc2nc(C3CC3)cc(C(=O)O)c12 [I.2.55]
damage [3]: 100% | damage [4]: 100%

CCCCOc1noc2nc(C3CC3)cc(C(=O)O)c12 [I.2.56]
damage [3]: 100% | damage [4]: 100%

CC(C)Oc1noc2nc(C3CC3)cc(C(=O)O)c12 [I.2.57]
pest or weed control at 1000 g/ha [3, 5]: 100% | pest or weed control at 1000 g/ha [4, 5]: 100%

CC(C)(C)Oc1noc2nc(C3CC3)cc(C(=O)O)c12 [I.2.58]
pest or weed control at 1000 g/ha [3, 5]: 100% | pest or weed control at 1000 g/ha [4, 5]: 100%

CCc1ccc(-c2noc3nc(C4CC4)cc(C(=O)O)c23)cc1 [I.2.61]
damage [3]: 100% | damage [4]: 100%

CCOc1ccc(-c2noc3nc(C4CC4)cc(C(=O)O)c23)cc1 [I.2.62]
damage [3]: 100% | damage [4]: 100%

CCCCOc1ccc(-c2noc3nc(C4CC4)cc(C(=O)O)c23)cc1 [I.2.63]
damage [3]: 100% | damage [4]: 100%

CC(C)c1ccc(-c2noc3nc(C4CC4)cc(C(=O)O)c23)cc1 [I.2.66]
damage [3]: 100% | damage [4]: 100%

CC(C)(C)c1ccc(-c2noc3nc(C4CC4)cc(C(=O)O)c23)cc1 [I.2.71]
damage [3]: 100% | damage [4]: 100%

COC(=O)c1cc(C2CC2)nc2onc(-c3cccnc3)c12 [I.4.2]
pest or weed control at 3000 g/ha [1]: 85%

COC(=O)c1cc(C2CC2)nc2onc(C3CC3C)c12 (centres unmarked) [I.4.3]
pest or weed control at 3000 g/ha [1]: 90%

COC(=O)c1cc(C2CC2)nc2onc(C3CCC3)c12 [I.4.4]
pest or weed control at 3000 g/ha ([2]; application rate 3.0 kg/ha): 100%

COC(=O)c1cc(C2CC2)nc2onc(CCc3ccccc3)c12 [I.4.5]
damage ([2]; application rate 3.0 kg/ha): 85%

COC(=O)c1cc(C2CC2)nc2onc(C(F)(F)F)c12 [I.4.6]
pest or weed control at 3000 g/ha [1]: 80%

COC(=O)c1cc(C2CC2)nc2onc(-c3cccc(OC)c3)c12 [I.4.19]
damage [1]: 100%

CCCCCc1noc2nc(C3CC3)cc(C(=O)OC)c12 [I.4.25]
damage ([2]; application rate 3.0 kg/ha): 100%

COC(=O)c1cc(C2CC2)nc2onc(CCC3CCCCC3)c12 [I.4.27]
pest or weed control at 3000 g/ha ([2]; application rate 3.0 kg/ha): 100%

CSC(=O)c1cc(C2CC2)nc2onc(CC(C)(C)C)c12 [I.4.45]
damage [3]: 100%

CSC(=O)c1cc(C2CC2)nc2onc(-c3ccc(F)cc3)c12 [I.4.47]
damage [3]: 95%

CCCc1noc2nc(C3CC3)cc(C(=O)SC)c12 [I.4.59]
damage [3]: 95% | damage [4]: 100%

CSC(=O)c1cc(C2CC2)nc2onc(C3CC3)c12 [I.4.60]
pest or weed control at 927 g/ha [3, 6]: 100% | pest or weed control at 927 g/ha [4, 6]: 100%

NC(=O)c1cc(C2CC2)nc2onc(C3CC3)c12 [I.4.63]
pest or weed control at 1000 g/ha [3, 5]: 100% | pest or weed control at 1000 g/ha [4, 5]: 100%

CCc1cc(C(=O)O)c2c(C)noc2n1 [I.5.4]
pest or weed control at 3000 g/ha ([2]; application rate 3.0 kg/ha): 85%

Cc1ccccc1-c1cc(C(=O)O)c2c(C)noc2n1 [I.5.8]
damage [1]: 85%

Cc1cc(C(=O)O)c2c(C(C)C)noc2n1 [I.7.10]
pest or weed control at 3000 g/ha ([2]; application rate 3.0 kg/ha): 100%

Cc1cc(C(=O)O)c2c(C3CC3)noc2n1 [I.7.13]
pest or weed control at 3000 g/ha ([2]; application rate 3.0 kg/ha): 100%

Cc1cc(C(=O)O)c2c(-c3ccccc3)noc2n1 [I.7.31]
damage ([2]; application rate 3.0 kg/ha): 98%

Cc1cc(C(=O)O)c2c(-c3ccco3)noc2n1 [I.7.38]
pest or weed control at 3000 g/ha ([2]; application rate 3.0 kg/ha): 100%

CCCc1noc2nc(C)cc(C(=O)O)c12 [I.7.39]
damage ([2]; application rate 3.0 kg/ha): 100%

Cc1cc(C(=O)O)c2c(CC(C)(C)C)noc2n1 [I.7.41]
damage ([2]; application rate 3.0 kg/ha): 100%

COC(=O)c1cc(C2(F)CC2)nc2onc(C3CC3)c12 [I.7.53]
pest or weed control at 1000 g/ha [3, 5]: 100% | pest or weed control at 1000 g/ha [4, 5]: 90%

O=C(O)c1cc(C2CC2(F)F)nc2onc(C3CC3)c12 (centres unmarked) [I.7.55]
pest or weed control at 1000 g/ha [3, 5]: 100% | pest or weed control at 1000 g/ha [4, 5]: 100%

O=C(O)c1cc(C2CC2(F)F)nc2onc(-c3ccccc3)c12 (centres unmarked) [I.7.56]
damage [3]: 80% | damage [4]: 90%

COc1ccc(-c2noc3nc(C4CC4(F)F)cc(C(=O)O)c23)cc1 (centres unmarked) [I.7.57]
damage [3]: 80% | damage [4]: 98%

COc1ccc(-c2noc3nc(C4(F)CC4)cc(C(=O)O)c23)cc1 [I.7.61]
damage [3]: 100% | damage [4]: 100%

O=C(O)c1cc(C2(F)CC2)nc2onc(-c3ccccc3)c12 [I.7.62]
damage [3]: 100% | damage [4]: 100%

CCCc1noc2nc(C3(F)CC3)cc(C(=O)O)c12 [I.7.63]
damage [3]: 100% | damage [4]: 100%

CC(C)(C)c1noc2nc(C3(F)CC3)cc(C(=O)O)c12 [I.7.64]
pest or weed control at 1000 g/ha [3, 5]: 100% | pest or weed control at 1000 g/ha [4, 5]: 100%

O=C(O)c1cc(C2(F)CC2)nc2onc(-c3ccc(OC(F)F)cc3)c12 [I.7.65]
damage [3]: 100% | damage [4]: 100%

CC(C)Cc1noc2nc(C3(F)CC3)cc(C(=O)O)c12 [I.7.68]
damage [3]: 100% | damage [4]: 100%

CCc1noc2nc(C3(F)CC3)cc(C(=O)O)c12 [I.7.90]
pest or weed control at 1000 g/ha [3, 5]: 100% | pest or weed control at 1000 g/ha [4, 5]: 100%

Cc1noc2nc3c(c(C(=O)O)c12)CCC3 [I.8.1]
pest or weed control at 3000 g/ha ([2]; application rate 3.0 kg/ha): 100%

COC(=O)c1cc(C2CC2)nc2onc(C3CC3)c12 [I.8.4]
pest or weed control at 1000 g/ha [3, 5]: 100% | pest or weed control at 1000 g/ha [4, 5]: 100%

Reference: patent publication US10334851B2, “Herbicidal isoxazolo[5,4-B]pyridines” (BASF SE, priority 2010, dated 2019)
